Changes are numbered by the printed parent chain. Names and notes keep the numbering of the source. Values joined by “and” are separate entries in the source; they are usually repeats but may differ in a detail not shown here. Equal values may be shown once.
B1: Ima1p: isomaltase from S. cerevisiae encoded by IMA1/YGR287C, His-tagged, purified (protein, UniProt P53051 2-589, looked up)
Oligo-1,6-glucosidase IMA1: TISSAHPETEPKWWKEATFYQIYPASFKDSNDDGWGDMKGIASKLEYIKELGADAIWISPFYDSPQDDMGYDIANYEKVWPTYGTNEDCFALIEKTHKLGMKFITDLVINHCSSEHEWFKESRSSKTNPKRDWFFWRPPKGYDAEGKPIPPNNWKSYFGGSAWTFDEKTQEFYLRLFCSTQPDLNWENEDCRKAIYESAVGYWLDHGVDGFRIDVGSLYSKVVGLPDAPVVDKNSTWQSSDPYTLNGPRIHEFHQEMNQFIRNRVKDGREIMTVGEMQHASDETKRLYTSASRHELSELFNFSHTDVGTSPLFRYNLVPFELKDWKIALAELFRYINGTDCWSTIYLENHDQPRSITRFGDDSPKNRVISGKLLSVLLSALTGTLYVYQGQELGQINFKNWPVEKYEDVEIRNNYNAIKEEHGENSEEMKKFLEAIALISRDHARTPMQWSREEPNAGFSGPSAKPWFYLNDSFREGINVEDEIKDPNSVLNFWKEALKFRKAHKDITVYGYDFEFIDLDNKKLFSFTKKYNNKTLFAALNFSSDATDFKIPNDDSSFKLEFGNYPKKEVDASSRTLKPWEGRIYISE
modifications: His tag
B2: Ima2p: isomaltase from S. cerevisiae encoded by IMA2/YOL157C, His-tagged, purified (protein, UniProt Q08295 1-589, looked up)
Oligo-1,6-glucosidase IMA2: MTISSAHPETEPKWWKEATIYQIYPASFKDSNNDGWGDMKGIASKLEYIKELGADAIWISPFYDSPQDDMGYDIANYEKVWPTYGTNEDCFALIEKTHKLGMKFITDLVINHCSSEHEWFKESRSSKTNPKRDWFFWRPPKGYDAEGKPIPPNNWRSYFGGSAWTFDEKTQEFYLRLFCSTQPDLNWENEDCRKAIYESAVGYWLDHGVDGFRIDVGSLYSKVAGLPDAPVIDENSKWQPSDPFTMNGPRIHEFHQEMNKFIRNRVKDGREIMTVGEMQHATDETKRLYTSASRHELSELFNFSHTDVGTSPKFRQNLIPYELKDWKVALAELFRYVNGTDCWSTIYLENHDQPRSITRFGDDSPKNRVISGKLLSVLLVSLSGTLYVYQGQELGEINFKNWPIEKYEDVEVRNNYDAIKEEHGENSKEMKRFLEAIALISRDHARTPMQWSREEPNAGFSGPNAKPWFYLNESFREGINAEDESKDPNSVLNFWKEALRFRKAHKDITVYGYDFEFIDLDNKKLFSFTKKYDNKTLFAALNFSSDSIDFTIPNNSSSFKLEFGNYPRSEVDASSRTLKPWEGRIYISE
modifications: His tag
B3: Ima3p_L240P: Ima3p variant with L240P mutation (protein, UniProt P0CW40 1-589, looked up, variant L240P)
Oligo-1,6-glucosidase IMA3: B2 Oligo-1,6-glucosidase IMA2 with A54T, Q279R
B4: Ima3p: isomaltase from S. cerevisiae encoded by IMA3/YIL172C (identical IMA4), His-tagged, purified (protein, UniProt P0CW41 1-589, looked up)
Oligo-1,6-glucosidase IMA4: B2 Oligo-1,6-glucosidase IMA2 with A54T, P240L, Q279R
modifications: His tag
B5: Ima5p: isomaltase from S. cerevisiae encoded by IMA5/YJL216C, His-tagged, purified (protein, UniProt P40884 1-581, looked up)
Oligo-1,6-glucosidase IMA5: MTIIHNPKWWKEATVYQIYPASFKDSNNDGWGDLAGITSKLDYVKELGVDAIWVCPFYDSPQEDMGYDIANYEKVWPRYGTNEDCFQMIEEAHKRGIKVIVDLVINHCSEEHEWFKESRSSKANPKRDWFFWRPPKGYDEKGNPIPPNNWRSFFGGSAWRYDEKTGEFFLHVFALGQPDFNWENEECRKAIYDSSVGYWLRHNVDGFRIDVGSMYSKVEGLPDAPITDPTVPYQKGTEFFINGPRIHEYHKEMHNYMLSQVPEGKEIMTVGEVGIGNEDDFRVYTSAKEGELNMMFNFKHTSVGENPKCKYELIPFTLKDFKLALAESFLFIENTDCWSTIYLENHDQPRSVSRFGSDSPKWREISSKMLATLIISLTGTVFIYQGQELGMPNFKNRKIEQIKCVEGTGTYAAIKRDYGEDSEKMKKFFEALALISRDHGRTPFPWSADEPSAGFSKDAKPWIDMNESFRDGINAEAELKDKNSVFFFWKKALQVRKEHKDILVYGHNFQFIDLDNDKLFMFTKDTDNKKMFAVFNFSSDNTDFSVPDNEASYTMFFGNYANSNGDSRTLQPWEGRLYLLK
modifications: His tag

Key:
Ima5p = target: T1, Ima5p (Saccharomyces cerevisiae, UniProt P40884); assay: Substrate specificity of purified isomaltase; format: biochemical; details: 100 mM substrate (pNPG 5 mM), pH 7, 30 °C; for Specific activities: citrate–potassium phosphate buffer
T1 sequence (P40884 1-581): B5 Oligo-1,6-glucosidase IMA5

Ima2p = Ima2p (Saccharomyces cerevisiae, UniProt Q08295); assay: Substrate specificity of purified isomaltase; format: biochemical; details: 100 mM substrate (pNPG 5 mM), pH 7, 30 °C; for Specific activities: citrate–potassium phosphate buffer
Ima1p = Ima1p (Saccharomyces cerevisiae, UniProt P53051); assay: Substrate specificity of purified isomaltase; format: biochemical; details: 100 mM substrate (pNPG 5 mM), pH 7, 30 °C; for Specific activities: citrate–potassium phosphate buffer
Sequence of Ima1p (P53051 whole entry): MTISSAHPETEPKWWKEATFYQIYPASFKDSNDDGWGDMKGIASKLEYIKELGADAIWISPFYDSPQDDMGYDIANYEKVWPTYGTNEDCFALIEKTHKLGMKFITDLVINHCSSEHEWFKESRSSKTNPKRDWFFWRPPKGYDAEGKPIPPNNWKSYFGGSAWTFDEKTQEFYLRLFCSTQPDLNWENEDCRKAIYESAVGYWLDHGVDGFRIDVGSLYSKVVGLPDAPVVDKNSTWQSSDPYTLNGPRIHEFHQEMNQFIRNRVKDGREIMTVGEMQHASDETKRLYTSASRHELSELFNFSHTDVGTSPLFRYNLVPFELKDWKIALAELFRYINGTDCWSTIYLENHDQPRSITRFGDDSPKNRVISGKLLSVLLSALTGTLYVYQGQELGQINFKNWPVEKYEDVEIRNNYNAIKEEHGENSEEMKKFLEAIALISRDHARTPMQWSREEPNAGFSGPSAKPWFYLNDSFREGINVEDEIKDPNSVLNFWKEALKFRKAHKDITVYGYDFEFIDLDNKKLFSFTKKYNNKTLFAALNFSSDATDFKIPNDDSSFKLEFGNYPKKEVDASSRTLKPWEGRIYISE

Ima3p = Ima3p (Saccharomyces cerevisiae, UniProt P0CW40); assay: Substrate specificity of purified isomaltase; format: biochemical; details: 100 mM substrate (pNPG 5 mM), pH 7, 30 °C; for Specific activities: citrate–potassium phosphate buffer
Sequence of Ima3p (P0CW40 whole entry): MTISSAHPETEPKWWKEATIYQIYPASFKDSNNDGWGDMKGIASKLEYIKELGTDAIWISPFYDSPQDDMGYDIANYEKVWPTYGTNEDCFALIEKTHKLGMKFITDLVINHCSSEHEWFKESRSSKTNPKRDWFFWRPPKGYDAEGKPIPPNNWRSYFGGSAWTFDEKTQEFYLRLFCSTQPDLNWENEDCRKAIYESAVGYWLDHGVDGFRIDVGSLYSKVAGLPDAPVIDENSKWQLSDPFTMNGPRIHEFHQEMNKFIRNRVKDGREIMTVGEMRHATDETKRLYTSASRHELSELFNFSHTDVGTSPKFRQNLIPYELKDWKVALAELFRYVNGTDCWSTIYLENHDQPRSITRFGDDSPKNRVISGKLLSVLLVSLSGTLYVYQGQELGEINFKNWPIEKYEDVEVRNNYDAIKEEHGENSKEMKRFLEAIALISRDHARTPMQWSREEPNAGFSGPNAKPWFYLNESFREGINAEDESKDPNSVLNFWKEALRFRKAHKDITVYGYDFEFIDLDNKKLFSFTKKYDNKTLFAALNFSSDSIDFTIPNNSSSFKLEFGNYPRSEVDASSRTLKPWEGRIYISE

[1] = Thermostability assay: time-dependent heat inactivation, half-life; format: biochemical, Saccharomyces cerevisiae; details: pNPG 5 mM, mean ± 2 SEM
[2] = Melting temperature by differential scanning fluorimetry; format: physicochemical, Saccharomyces cerevisiae; details: for Tm: mean ± 2 SEM; for decrease of Tm on increase by one pH unit (pH 8): pH 7 to pH 8

Molecule | Specific activities (Ima5p) | relative activity, velocity on isomaltose set to 100 (Ima5p) | Specific activities (Ima2p) | relative activity, velocity on isomaltose set to 100 (Ima2p) | Specific activities (Ima1p) | relative activity, velocity on isomaltose set to 100 (Ima1p) | Specific activities (Ima3p) | t1/2 ([1]; 37 °C) | t1/2 ([1]; 40 °C) | Tm ([2]; pH 6, DSF) | Tm ([2]; pH 7, DSF) | Tm ([2]; pH 8, DSF) | other results
O=C(CO)[C@@H](O[C@H]1O[C@H](CO)[C@@H](O)[C@H](O)[C@H]1O)[C@H](O)[C@H](O)CO [Turanose, O-α-D-Glucosyl-(1→3)-D-fructose] | 1.2 µmol/min/mg | 2% | 3.5 µmol/min/mg | 6% | 4.3 µmol/min/mg | 7% | 1.8 µmol/min/mg | – | – | – | – | – | relative activity, velocity on isomaltose set to 100 (Ima3p): 25%
OC[C@H]1O[C@@](CO)(O[C@H]2O[C@H](CO)[C@@H](O)[C@H](O)[C@H]2O)[C@@H](O[C@H]2O[C@H](CO)[C@@H](O)[C@H](O)[C@H]2O)[C@@H]1O [Melezitose, O-α-D-Glucosyl-(1→3)-β-D-fructosyl-(2→1)-D-glucose] | 0 µmol/min/mg | – | 0 µmol/min/mg | – | 0 µmol/min/mg | – | 0 µmol/min/mg | – | – | – | – | – | –
OC[C@H]1O[C@H](O[C@H]2[C@H](O)[C@@H](O)[C@@H](O[C@H]3[C@H](O)[C@@H](O)C(O)O[C@@H]3CO)O[C@@H]2CO)[C@H](O)[C@@H](O)[C@@H]1O (stereo partly drawn) [Maltotriose, O-α-D-Glucosyl-(1→4)-α-D-glucosyl-(1→4)-D-glucose] | 3.4 µmol/min/mg | 5% | 3.4 µmol/min/mg | 6% | 3.5 µmol/min/mg | 6% | 0 µmol/min/mg | – | – | – | – | – | relative activity, velocity on isomaltose set to 100 (Ima5p; listed as maltotriose): approx. 5%; relative activity, velocity on isomaltose set to 100 (Ima2p; listed as maltotriose): approx. 5%; relative activity, velocity on isomaltose set to 100 (Ima1p; listed as maltotriose): approx. 5%
OC[C@H]1O[C@H](O[C@@H]2[C@@H](O)[C@H](O)[C@@H](CO)O[C@@H]2O)[C@H](O)[C@@H](O)[C@@H]1O [Kojibiose, O-α-D-Glucosyl-(1→2)-α-D-glucose] | 2.5 µmol/min/mg | 4% | 6.9 µmol/min/mg | 13% | 7.7 µmol/min/mg | 13% | 0 µmol/min/mg | – | – | – | – | – | –
OC[C@H]1O[C@H](O[C@H]2O[C@H](CO)[C@@H](O)[C@H](O)[C@H]2O)[C@H](O)[C@@H](O)[C@@H]1O [Trehalose, O-α-D-Glucosyl-(1→1)-α-D-glucose] | 0 µmol/min/mg | – | 0 µmol/min/mg | – | 0 µmol/min/mg | – | 0 µmol/min/mg | – | – | – | – | – | –
OC[C@H]1O[C@H](O[C@@H]2[C@@H](CO)OC(O)(CO)[C@H]2O)[C@H](O)[C@@H](O)[C@@H]1O (stereo partly drawn) [Maltulose, O-α-D-Glucosyl-(1→4)-D-fructose] | 0.36 µmol/min/mg | 1% | 0.53 µmol/min/mg | 1% | 0 µmol/min/mg | – | 0 µmol/min/mg | – | – | – | – | – | –
OC[C@H]1O[C@H](O[C@@H]2[C@@H](O)[C@@H](O)O[C@H](CO)[C@H]2O)[C@H](O)[C@@H](O)[C@@H]1O [Nigerose, O-α-D-Glucosyl-(1→3)-α-D-glucose] | 4.2 µmol/min/mg | 6% | 6.8 µmol/min/mg | 13% | 6.5 µmol/min/mg | 11% | 2.5 µmol/min/mg | – | – | – | – | – | relative activity, velocity on isomaltose set to 100 (Ima3p): 35%
B1 | – | – | – | – | – | – | – | 26.1 ± 1.7 min | 17.6 ± 1.7 min | 55.5 ± 0.6 °C | 46.6 ± 0.7 °C | 41.6 ± 0.2 °C | decrease of Tm on increase by one pH unit (pH 8) [2]: 5 °C
B2 | – | – | – | – | – | – | – | 27.4 ± 1.6 min | 18.5 ± 1.6 min | 55.1 ± 0.2 °C | 46.2 ± 0.8 °C | 33.2 ± 0.6 °C | t1/2 ([1]; 42 °C): 11.2 ± 0.7 min; decrease of Tm on increase by one pH unit (pH 8) [2]: 13 °C
B3 | – | – | – | – | – | – | – | 26.5 ± 2.2 min | 16.2 ± 1.8 min | – | 39.7 °C and 39.7 ± 0.4 °C | – | t1/2 ([1]; 42 °C): 8.5 ± 1.3 min; increase of Tm relative to Ima3p ([2]; pH 7): 1 °C
B4 | – | – | – | – | – | – | – | 23.2 ± 1.4 min | 7.6 ± 0.9 min | 47.0 ± 0.3 °C | 38.8 ± 0.5 °C | 29.9 ± 0.3 °C | t1/2 ([1]; 42 °C): 2.9 ± 0.5 min
B5 | – | – | – | – | – | – | – | 2.9 ± 0.4 min | 0.8 ± 0.1 min | 36.6 ± 0.4 °C | – | 35.7 ± 0.5 °C | –
